Our source for the viability values is article PMC12040169 (PLOS Biology, 2025).

This data set can be described thus: in vitro. Particulars: human, hela cells, % viability.

What is called viability is a read-out of living cells in per cent, often relative to untreated cells. For `Cc1cc(C(=O)Nc2ccc(-c3nc4ccccc4s3)c(O)c2)ccc1[N+](=O)[O-]` [CBK262820], the viability at 28.5 h, 10 µM amounted to 92.6%.
`COc1ccc(CNC(=S)Nc2cccc(C(F)(F)F)c2)cc1OC` [CBK266977]: the viability at 28.5 h, 10 µM came to 101%.
Regarding `Cc1ccc(NC(=O)Cn2cnc3c2c(=O)n(C)c(=O)n3C)c(C)c1` [CBK133276], the viability at 28.5 h, 10 µM amounted to 90.6%.
Turning to `CCOc1ccc(OC(=O)c2ccc3c(c2)OCO3)cc1` [CBK149205], the viability at 28.5 h, 10 µM is 92.6%.
As to `COc1cc(F)cc(OC2CCNCC2)c1NC(=O)/C=C/c1cccnc1` [CBK050344T], the viability at 28.5 h, 10 µM turned out to be 103%.
Turning to `COc1cccc(CCC(=O)Nc2cnc(-c3cccc(C(F)(F)F)c3)c(-c3cccnc3)n2)c1` [CBK036835], the viability at 28.5 h, 10 µM is 90%.
Same read-out and setting: then `Cc1cc(C)nc(NC(=O)COc2ccc([N+](=O)[O-])cc2)n1` [CBK265004], with 101%; and `CC(=O)Nc1ccc([C@@H](O)[C@H]2COCC(=O)N2Cc2ccc(C(F)(F)F)cc2)cc1` [CBK289678], with 92.7%.
Still for that read-out and setting: then `COCCNc1nc(-c2ccc(N3CCOCC3)cc2)ccc1C(=O)N1CCN(C)CC1` [CBK105943], with 111%; and `O=C(O)c1ccccc1C(=O)OCCN1CCOCC1` [CBK261462], with 85.4%.
As for `COc1ccc2c(c1)C1(CC(=O)N(CCc3scnc3C)C1=O)C(=O)N2Cc1ccccc1` (stereo not shown) [CBK075240], the viability at 28.5 h, 10 µM is 95.7%.
On to `CS(=O)(=O)c1ccc(-c2ccc3c(n2)CCN(C2CCN(C(=O)OCc4ccccc4)CC2)C3)cc1` [CBK169530], for which the viability at 28.5 h, 10 µM is 81.8%.
In the case of `CC(=O)N(C)c1ccc(NS(=O)(=O)c2cc(C)c(Cl)cc2C)cc1` [CBK045298], the viability at 28.5 h, 10 µM worked out at 94.3%.
For `CC(C)(C)c1ccc(-c2cnc3ncccc3c2N)cc1` [CBK083684], the viability at 28.5 h, 10 µM turned out to be 99.9%.
Turning to `CCOc1ccccc1C(=O)N1CCC(Cc2cccc(-c3cccs3)c2)(C(N)=O)CC1` [CBK285914], the viability at 28.5 h, 10 µM is 84.9%.
Still for that read-out and setting: the result for `NC(=O)CN1CCC(Oc2cncc(OCc3ccc(Cl)c(Cl)c3)n2)C1` (stereo not shown) [CBK084429] reads 101%; that for `COc1cccc(/C=C2/NC(=O)N(Cc3ccc(F)cc3)C2=O)c1OCc1cccc(C(=O)O)c1` [CBK265282], 89.1%; that for `CN(C)c1ccc(NC(=O)C(Cc2ccccc2)N2C(=O)c3ccccc3C2=O)cc1` (stereo not shown) [CBK262413], 99.6%.
Consider `CN(C)CCCN(Cc1cnn(-c2ccccc2)c1)Cc1ccco1` [CBK283040], for which the viability at 28.5 h, 10 µM was found to be 110%.
As to `NC(=O)CN1CC2(CCN(Cc3ccc(Cl)c(Cl)c3)CC2)c2ccccc21` [CBK126775], the viability at 28.5 h, 10 µM came to 109%.
As for `O=C(Nc1ccc(N2CCN(C(=O)c3ccco3)CC2)cc1)c1cc([N+](=O)[O-])ccc1N1CCOCC1` [CBK269052], the viability at 28.5 h, 10 µM turned out to be 91.6%.
On the same count and under the same terms, the result for `Brc1ccc2c(c1)[C@H]1C=CC[C@H]1[C@@H](c1ccccc1)N2` [CBK303238] reads 89%; that for `CCNc1ccn([C@H]2C[C@@H](O)[C@@H](CO)O2)c(=O)n1` [CBK201311], 95.2%; that for `COc1ccc(-c2cn3ccnc3c(N3CCCCC3CO)n2)cc1OC` (stereo not shown) [CBK066230], 107%.
As for `COc1ccc(-c2nnc([C@H]3CCN(Cc4ccccn4)C3)o2)cc1` [CBK289401], the viability at 28.5 h, 10 µM was determined as 93.4%.
Turning to `CC(Cn1cnc2ccccc21)C(=O)N1CCCCC1CN(C)C` (stereo not shown) [CBK282191], the viability at 28.5 h, 10 µM was determined as 106%.
As for `O=C(c1nccc2ccccc12)N1CCc2ccccc21` [CBK200405], the viability at 28.5 h, 10 µM turned out to be 93.5%.
As for `CC(=O)Nc1ccc(-c2ccc(C(=O)N3CCN(C(=O)OCc4ccccc4)CC3)cn2)cc1` [CBK160185], the viability at 28.5 h, 10 µM came to 87.6%.
As for `O=C(O)/C(Cl)=C(\Cl)C(=O)N1CCC2(CC1)OCCc1c2[nH]c2ccccc12` [CBK047035], the viability at 28.5 h, 10 µM is 85%.
Turning to `COc1ccccc1NC(=O)CC1S/C(=N\N=C2/CCCc3ccccc32)N=C1O` (stereo not shown) [CBK263748], the viability at 28.5 h, 10 µM amounted to 102%.
On the same count and under the same terms, then `Cc1onc(-c2ccccc2)c1C(=O)N1CCN(CCN2CCCC2)CC1` [CBK158558], with 98.6%; and `O=S(=O)(c1ccccc1)N(Cc1cc2ccccc2nc1O)CC1CCCO1` (stereo not shown) [CBK269424], with 93.3%.
As to `CC(C)NC(=O)Cn1c(=O)n(Cc2cccs2)c2ncccc21` [CBK283900], the viability at 28.5 h, 10 µM turned out to be 83.6%.
Turning to `O=C1/C(=C2/Sc3ccccc3N2CCCS(=O)(=O)O)SC(=S)N1c1ccccc1` [CBK260954G], the viability at 28.5 h, 10 µM turned out to be 94.5%.
Consider `C(CSC1=NCCN1)CSC1=NCCN1` [CBK278217B], for which the viability at 28.5 h, 10 µM is 106%.
`O=c1[nH]c(-c2ccccc2)nc2c1CN(Cc1ccc(F)cc1)CC2` [CBK282329]: the viability at 28.5 h, 10 µM came to 93.3%.
Take `Cc1ccc(-c2csc(NC(=O)c3ccccc3C(=O)O)n2)cc1` [CBK072083]: the viability at 28.5 h, 10 µM amounted to 91.9%.
As for `COC(=O)c1ccc(N2CCN(Cc3ccc(CO)o3)C(C)C2)cc1` (stereo not shown) [CBK305394], the viability at 28.5 h, 10 µM was determined as 83.9%.
For `COc1cc2cc(C(=O)N3CCN(Cc4ccc5c(c4)OCO5)CC3)c(=O)oc2cc1OC` [CBK074790], the viability at 28.5 h, 10 µM worked out at 102%.
`CCC(CC(=O)NC1CCCOC1)c1c[nH]c2ccccc12` (stereo not shown) [CBK282521]: the viability at 28.5 h, 10 µM was 119%.
Still for that read-out and setting: then `O=C1CCC(=O)N1CCOc1nccnc1OC1CCN(Cc2ccc(Cl)c(Cl)c2)CC1` [CBK084335], with 96.2%; and `CC(=O)N1CC[C@H]2NC(=O)CNC(=O)C3(CCCC[C@H]2C1)CCNCC3` [CBK292142], with 93.8%.
Take `O=C1NC(=S)NC(=O)C1=Cc1ccc(OCc2ccccc2)c(C(=O)O)c1` [CBK264159]: the viability at 28.5 h, 10 µM (bulk resorufin, single well) was found to be 117%.
For the compound `CC1CN(C(=O)CCn2c(C(F)F)cc3cccnc32)CC(C)O1` (stereo not shown) [CBK284984], the viability at 28.5 h, 10 µM stood at 95.3%.
Take `Cc1ccc(C)c(OCCNCc2ccco2)c1Cl` [CBK269718C]: the viability at 28.5 h, 10 µM stood at 98.3%.
For the compound `CCN1CCN(c2ccc(C(=O)OC)cc2NC(=O)c2ccccc2Cl)CC1` [CBK270267], the viability at 28.5 h, 10 µM worked out at 98.3%.
For `Cc1ccc2cc(C)c3nn(CC(=O)NC4CC4)c(=O)n3c2c1C` [CBK283822], the viability at 28.5 h, 10 µM came out at 83.8%.
For the compound `COCCNC(=O)c1ccc(-c2cc(C(C)C)ccc2OC)nc1N(C)C` [CBK106061], the viability at 28.5 h, 10 µM came out at 103%.
Same read-out and setting: the result for `CC(C)c1cccc(C(C)C)c1OCCNCCO` [CBK262750] reads 89.3%.
Consider `COc1ccc(S(=O)(=O)N(CC(=O)Nc2cccnc2)c2ccc(F)cc2)cc1` [CBK268445], for which the viability at 28.5 h, 10 µM came out at 86.5%.
In the case of `NC(=O)CSc1nnc(NC(=O)c2ccccc2)s1` [CBK287628], the viability at 28.5 h, 10 µM turned out to be 92.8%.
As for `O=C(c1cnc2cc(Cl)ccc2c1O)N1CCN(c2ncccn2)CC1` [CBK107358], the viability at 28.5 h, 10 µM is 108%.
As for `CN(CC(=O)NCc1ccccc1OC1CCNC1)C(=O)c1ccccc1` (stereo not shown) [CBK028298T], the viability at 28.5 h, 10 µM is 96.9%.
On the same count and under the same terms, the result for `COC(=O)c1c(NC(=O)c2cnccn2)sc2c1CCC(C)C2` (stereo not shown) [CBK262654] reads 96.2%.
For `CN(C)c1ccc(/C=C2/C(=N)N3N=C(c4ccccc4Cl)SC3=NC2=O)cc1` [CBK097554], the viability at 28.5 h, 10 µM stood at 94.6%.
Same read-out and setting: the result for `CC(=O)Nc1nc(OCC(F)(F)F)cnc1-c1ccc2c(c1)OCO2` [CBK145427] reads 91.8%.
With `Cc1cnn(C2CN(CC(=O)N3CCc4sccc4C3)C2)c1` [CBK305097], the viability at 28.5 h, 10 µM worked out at 86.8%.
The same measure, in the same setting: then `CN(C)c1ccccc1-c1cc(Nc2ccc3cn[nH]c3c2)ncn1` [CBK090850], with 55.7%; and `Sc1nnc(COc2ccccc2)n1/N=C/c1ccncc1` [CBK265360], with 100%.
Turning to `O=C(NC1CCCN(CC(F)(F)F)C1=O)c1cnc(-c2ccncc2)s1` (stereo not shown) [CBK306175], the viability at 28.5 h, 10 µM was determined as 82.6%.
Still for that read-out and setting: the result for `COc1ccc(C(=O)CC(SCC(NC(C)=O)C(=O)O)c2ccc(Cl)cc2)cc1OC` (stereo not shown) [CBK296109] reads 88.4%; that for `Fc1ccccc1CN1CCN(c2nccnc2OCCN2CCOCC2)CC1` [CBK082886T], 102%.
On to `CC(C)(C)C1=CC2=NC3(CCC3)C3C[C@@](C)(O)[C@@H](O)[C@@H]3N2O1` (stereo partly shown) [CBK303263], for which the viability at 28.5 h, 10 µM is 112%.
Same read-out and setting: the result for `CC(=O)c1cc2c(N)c(C(N)=O)sc2nc1C` [CBK100769] reads 102%; that for `O=C(NCc1ccc2c(c1)OCO2)[C@H]1CN2CCC1C[C@@H]2Cn1cc(-c2ccccn2)nn1` (stereo partly shown) [CBK289082], 102%; that for `CCCS(=O)(=O)NC1CC(C)(C)Cc2c1cnn2-c1ccc(C)cc1` (stereo not shown) [CBK307531], 86.5%.
For the compound `Cc1cc2nnc(SC(C)c3nc(-c4ccccc4)no3)n2c(C)n1` (stereo not shown) [CBK298306], the viability at 28.5 h, 10 µM came to 91.7%.
With `C[C@@H](Cn1nc2c(cc1=O)CCCC2)NC(=O)c1ccco1` [CBK284559], the viability at 28.5 h, 10 µM came to 92.2%.
On to `CC(=O)Nc1c(O)nc(SCC(=O)Nc2ccc(C(C)=O)cc2)[nH]c1=O` [CBK268527], for which the viability at 28.5 h, 10 µM turned out to be 106%.
For the compound `O=C1CC(C(=O)Nc2ccccc2)NC(Nc2cc(Cl)cc(Cl)c2)=N1` (stereo not shown) [CBK268752], the viability at 28.5 h, 10 µM was 106%.
For the compound `COCCNC(=O)Cn1c(-c2ccco2)cc2cccnc21` [CBK282720], the viability at 28.5 h, 10 µM stood at 80.6%.
Regarding `COc1ccc(-c2cc(C(=O)Nc3ccc4ncccc4c3)cnc2-c2ccccc2)cc1` [CBK036623], the viability at 28.5 h, 10 µM is 106%.
Consider `Cn1c(C(=O)NCCc2ccc(S(=O)(=O)NC(=O)NC3CCCCC3)cc2)cc2ccccc21` [CBK011876], for which the viability at 28.5 h, 10 µM was determined as 128%.
Turning to `COC(=O)c1cscc1NC(=O)c1cnc(-c2cccc(C)c2)c(-c2ccc(C(C)=O)s2)c1` [CBK036760], the viability at 28.5 h, 10 µM was found to be 85.4%.
As to `CC(C)(C)c1ccnc(N[C@H]2CO[C@H]3[C@@H]2OC[C@@H]3NCc2ccccn2)n1` [CBK289524], the viability at 28.5 h, 10 µM was found to be 86.6%.
Take `Cc1nc(C(=O)N2CCn3nc(C(O)c4ccccc4)cc3C2)c(C)s1` (stereo not shown) [CBK307474]: the viability at 28.5 h, 10 µM was found to be 92.5%.
